Earlier results as cited in patent publication US20050226814A1, “Diagnostic method and kit for implantation of a sustained release drug-delivery implant with a steroid” (Bausch & Lomb Incorporated, priority 2004, published 2005).

Key:
retinochoroid disorders = settings: injection into the eye of a patient
[1] = test system: proliferative vitreoretinopathy; settings: injected into the sub-conjuctival area

SMILES: C[C@]12C=CC(=O)C=C1CC[C@H]1[C@@H]3C[C@@H](O)[C@](O)(C(=O)CO)[C@@]3(C)C[C@H](O)[C@@]12F [trimacinolone, triamcinolone]
- long-term effect (retinochoroid disorders): did not have a significantly long-term effect

SMILES: C[C@]12CCC(=O)C=C1CC[C@@H]1[C@@H]2[C@@H](O)C[C@@]2(C)[C@H]1CC[C@]2(O)C(=O)CO [hydrocortisone]
- effect on proliferative vitreoretinopathy [1]: inhibited proliferative vitreoretinopathy
